Values quoted from earlier work, collected in patent publication US20060111347A1, “Substituted sulfones and methods of use” (AMGEN INC., priority 2004, published 2006).
No end group written: not given here.

Settings: degraded by peptidases

Sequence: RPPGFSPFR [BK, Bradykinin]
- half-life of BK in plasma: approximately 17 seconds
